Data: patent publication US20190374526A1, “Substituted Heterocyclic Compounds as Inhibitors of PRDM9” (Merck Sharp & Dohme Corp., priority 2018, published 2019)

What follows are compounds tested against T1, hPRDM9 (amino acids 195-385) (Homo sapiens, UniProt Q9NQV7) (assay: PRDM9 biochemical assay (radiometric, 3[H] methyl transfer from SAM to biotinylated histone H3 peptide)). Details: 1 nM hPRDM9, 1 μM biotinylated H3(1-25)K4 peptide, 5 μM 3[H]-SAM, 55 μM un-labeled SAM, 25° C., 30 minutes.
T1 construct: 1.25 nM hPRDM9 (amino acids 195-385)
T1 sequence (Q9NQV7 195-385): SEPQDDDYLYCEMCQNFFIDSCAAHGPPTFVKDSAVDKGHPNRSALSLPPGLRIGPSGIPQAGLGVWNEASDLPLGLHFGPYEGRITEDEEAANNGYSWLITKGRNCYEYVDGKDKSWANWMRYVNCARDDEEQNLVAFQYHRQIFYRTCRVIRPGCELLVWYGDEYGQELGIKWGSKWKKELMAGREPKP
In short: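 Radiometric assay of ³H-methyl transfer to biotinylated H3(1-25)K4 peptide, with final concentrations 1 nM hPRDM9 (195-385), 1 μM peptide, 5 μM ³H-SAM and 55 μM unlabeled SAM. Run in pH 8.5 Tris buffer for 30 min at 25° C, quenched with guanidine-HCl and captured on streptavidin Flashplates. IC50 from four-parameter fit relative to 0.5% DMSO controls.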

| SMILES | IC50 [µM] |
| --- | --- |
| Cc1cc(N2CC3(CCCN(c4nc(-c5ccccc5)no4)C3)C2)ccn1 [Compound 138, 5-(2-(2-methylpyridin-4-yl)-2,6-diazaspiro[3.5]nonan-6-yl)-3-phenyl-1,2,4-oxadiazole] | 4.8 |
| COc1cc(OC)cc(-c2nnc(N3CCN(C)C4(CCN(c5ccnc(C)c5)CC4)C3)o2)c1 [Compound 162] | 0.47 |
| Cc1cc(NC2CC23CCN(c2nc(-c4cc(Cl)cc(Cl)c4)no2)C3)ccn1 (stereo not shown) [Compound 156] | 16 |
| COc1cc(OC)cc(-c2noc(N3CCC(O)C4(CCN(c5ccnc(C)c5)CC4)C3)n2)c1 (stereo not shown) [Compound 186] | 0.217 |
| Cc1cc(N2CCC3(CCCN(c4noc(-c5cc(OC(F)F)cc(OC(F)F)c5)n4)C3)CC2)ccn1 [Compound 92] | 0.069 |
| Cc1cc(N2CCC3C2CCCN3c2nc(-c3cc(Cl)cc(Cl)c3)no2)ccn1 (stereo not shown) [Compound 213] | 1 |
| COc1cc(OC)cc(-c2noc(N3CC4(CCC3=O)CCN(c3ccnc(C)c3)CC4)n2)c1 [Compound 150] | 0.066 |
| Cc1cc(N2CC3(CCCN(c4ccc5c(Cl)cc(Cl)cc5n4)C3)C2)ccn1 [Compound 134, 5,7-dichloro-2-(2-(2-methylpyridin-4-yl)-2,6-diazaspiro[3.5]nonan-6-yl)quinoline] | 34.6 |
| Cc1cc(N2CCCC(Nc3nc(-c4cc(Cl)cc(Cl)c4)no3)CC2)ccn1 (stereo not shown) [Compound 42] | 35.8 |
| Cc1cc(N2CC3(CCCN(c4cc(-c5cc(F)cc(Cl)c5)n[nH]4)C3)C2)ccn1 [Compound 136, 6-(3-(3-chloro-5-fluorophenyl)-1H-pyrazol-5-yl)-2-(2-methylpyridin-4-yl)-2,6-diazaspiro[3.5]nonane] | 16.5 |
| CCC1(CNc2ccnc(C)c2)CCN(c2nc(-c3cc(Cl)cc(Cl)c3)no2)C1 (stereo not shown) [Compound 23] | 17.8 |
| Cc1cc(N2CC3(CCCN(c4nc(-c5cccc(Br)c5)no4)C3)C2)ccn1 [Compound 117] | 2 |
| Cc1cc(N2CC3(CCCN(c4cc(-c5cc(Cl)cc(Cl)c5)ccn4)C3)C2)ccn1 [Compound 137, 6-(4-(3,5-dichlorophenyl)pyridin-2-yl)-2-(2-methylpyridin-4-yl)-2,6-diazaspiro[3.5]nonane] | 21.5 |
